These results are taken from ChEMBL document CHEMBL3352078, “Repurposing human PDE4 inhibitors for neglected tropical diseases: design, synthesis and evaluation of cilomilast analogues as Trypanosoma brucei PDEB1 inhibitors” (Bioorg Med Chem Lett, 2014).

A value given as a limit tells only on which side of the number the result lay.

In data set [1] the target is T1, Class 1 phosphodiesterase PDEB1 (Trypanosoma brucei) (UniProt Q8WQX9).
T1 sequence (whole entry): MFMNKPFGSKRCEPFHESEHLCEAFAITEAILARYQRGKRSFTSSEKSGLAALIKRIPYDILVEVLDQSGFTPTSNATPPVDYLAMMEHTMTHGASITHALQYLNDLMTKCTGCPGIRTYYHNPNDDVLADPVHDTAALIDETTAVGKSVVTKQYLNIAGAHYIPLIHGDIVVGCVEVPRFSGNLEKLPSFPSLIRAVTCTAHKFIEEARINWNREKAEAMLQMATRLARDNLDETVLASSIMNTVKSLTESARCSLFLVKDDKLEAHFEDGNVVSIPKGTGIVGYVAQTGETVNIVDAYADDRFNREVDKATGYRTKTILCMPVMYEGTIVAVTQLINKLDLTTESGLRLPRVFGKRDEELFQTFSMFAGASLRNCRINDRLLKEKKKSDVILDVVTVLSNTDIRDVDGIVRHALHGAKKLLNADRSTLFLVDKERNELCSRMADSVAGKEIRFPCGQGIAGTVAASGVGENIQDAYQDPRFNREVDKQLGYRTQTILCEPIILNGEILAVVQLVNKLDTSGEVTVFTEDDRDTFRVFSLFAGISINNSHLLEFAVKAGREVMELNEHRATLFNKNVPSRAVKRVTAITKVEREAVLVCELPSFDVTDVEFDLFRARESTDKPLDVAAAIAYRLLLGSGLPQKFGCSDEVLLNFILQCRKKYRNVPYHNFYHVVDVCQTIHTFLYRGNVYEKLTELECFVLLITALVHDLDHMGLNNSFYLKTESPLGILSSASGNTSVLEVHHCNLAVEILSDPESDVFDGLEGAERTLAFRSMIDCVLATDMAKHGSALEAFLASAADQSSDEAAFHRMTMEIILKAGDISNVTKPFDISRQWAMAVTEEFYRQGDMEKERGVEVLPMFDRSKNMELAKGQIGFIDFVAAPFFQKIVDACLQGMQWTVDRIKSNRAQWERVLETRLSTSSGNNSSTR
The data set can be described thus: Inhibition of Trypanosoma brucei recombinant PDEB1 at 10 uM pre-incubated for 5 mins prior to substrate addition.

The target in data set [2] is T2, Class 1 phosphodiesterase PDEB1 (Trypanosoma brucei, UniProt Q8WQX9).
T2 sequence (Q8WQX9 whole entry): T1 sequence (whole entry)
The data set can be described thus: Inhibition of Trypanosoma brucei recombinant PDEB1 pre-incubated for 5 mins prior to substrate addition.

Data set [3] can be described thus: Cytotoxicity against mouse NIH/3T3 cells by Alamar blue cell viability assay. Type of data set: cell-based, NIH3T3. To be noted: read-out: TC50 (the source's name). (Alamar Blue is a resazurin reagent that responds to reducing activity.)
In another data set the test system is Trypanosoma brucei. The data set can be described thus: Antiparasitic activity against Trypanosoma brucei after 22 to 24 hrs by Alamar blue cell viability assay. The data set is classed as functional, organism-based.
Data set [4] is described as follows: Inhibition of Trypanosoma brucei PDEB2.

The inhibition is the change of the read-out against control, counted positive when it falls. On to `COc1ccc([C@]2(C#N)CC[C@H](C(=O)O)CC2)cc1OCc1ccccc1`, for which the inhibition in data set [1] was 20%. In general, IC50 refers to the concentration that inhibits the measured activity by half. As to `COc1ccc([C@]2(C#N)CC[C@@H](C(=O)O)CC2)cc1OCc1ccccc1`, the inhibition in data set [1] stood at 77%. Besides, the IC50 in data set [2] is 12 µM. As to `COc1ccc(C2(C#N)CCNCC2)cc1OC1CCCC1`, in data set [1], the inhibition was found to be 19%. On the same count and under the same terms, the figure for `COc1ccc([C@]2(C#N)CC[C@H](C(=O)O)CC2)cc1OC1CCCC1` is 9.3%; for `COc1ccc([C@]2(C#N)CC[C@H](C(=O)OC)CC2)cc1OC1CCCC1` it is 26%. As to `COc1ccc([C@]2(C#N)CC[C@@H](C(=O)O)CC2)cc1OCCCCOc1ccc(-c2nn[nH]n2)cc1`, the inhibition in data set [1] is 69%. Also, the IC50 in data set [2] turned out to be 7.9 µM.

For `COc1ccc([C@]2(C#N)CC[C@H](C(=O)OC)CC2)cc1OCc1ccccc1`, the inhibition in data set [1] worked out at 28%. The term EC50 denotes the concentration at which the effect is half-maximal. Read a high EC50 as weaker potency. As for `COc1ccc([C@]2(C#N)CC[C@@H](C(=O)O)CC2)cc1OC1CCCC1` [CILOMILAST], the IC50 in data set [2] was determined as 16 µM. In data set [3], the CC50 was > 50 µM. In addition, in the data set on Trypanosoma brucei, the EC50 is > 50 µM. For the compound `COc1ccc([C@]2(C#N)CC[C@@H](C(=O)O)CC2)cc1OCCCCOc1ccc(C#N)cc1`, in data set [1], the inhibition was 87%. The IC50 in data set [2] turned out to be 3.6 µM. As to `COc1ccc([C@]2(C#N)CC[C@@H](C(=O)O)CC2)cc1OCc1ccncc1`, the inhibition in data set [1] is 11%. Consider `COc1ccc([C@]2(C#N)CC[C@@H](C(=O)O)CC2)cc1OCCCCOc1ccc(C)cc1`, for which the inhibition in data set [1] worked out at 74%. For the same compound, in data set [2], the IC50 was found to be 4.9 µM.

For the compound `COc1ccc([C@]2(C#N)CC[C@@H](C(=O)OC)CC2)cc1OC1CCCC1`, in data set [1], the inhibition was 31%. Consider `COc1ccc([C@]2(C#N)CC[C@@H](C(=O)O)CC2)cc1OCCCCOc1ccc(F)cc1`, for which the inhibition in data set [1] worked out at 79%. Also, the IC50 in data set [2] came out at 9.2 µM. Regarding `COc1ccc([C@]2(C#N)CC[C@@H](C(=O)O)CC2)cc1OCc1ccccn1`, the inhibition in data set [1] was 33%. The same measure, in the same setting: the figure for `CCOC(=O)CN1CCC(C#N)(c2ccc(OC)c(OC3CCCC3)c2)CC1` is 6%. `COc1ccc([C@]2(C#N)CC[C@@H](C(=O)O)CC2)cc1OCCCCOc1ccccc1`: in data set [1], the inhibition worked out at 96%. For the same compound, the CC50 in data set [3] is > 50 µM. This compound also came in with an EC50 in the data set with Trypanosoma brucei of 26 µM. This compound displayed an IC50 in data set [4] of 2.1 µM. In the case of `COc1ccc(OCCCCOc2cc([C@]3(C#N)CC[C@@H](C(=O)O)CC3)ccc2OC)cc1`, the inhibition in data set [1] turned out to be 79%. Moreover, the IC50 in data set [2] came to 3.5 µM. The like results for `COc1ccc([C@]2(C#N)CC[C@@H](C(=O)O)CC2)cc1OCCCCCOc1ccccc1` were, in that order, 54% and 9.8 µM. The like results for `COc1ccc([C@]2(C#N)CC[C@@H](C(=O)O)CC2)cc1OCCCOc1ccccc1` were, in that order, 66% and 11 µM. Take `COc1ccc([C@]2(C#N)CC[C@@H](C(=O)OC)CC2)cc1OCc1ccccc1`: the inhibition in data set [1] is 40%. Same read-out and setting: the figure for `COc1ccc(C2(C#N)CCN(CC(=O)O)CC2)cc1OC1CCCC1` is 11%.
